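Dose response: 5 concentrations. Exposure: 48 h. Format: 96-well plates. Endpoint: linear interpolation; highest concentration if not reached. GI50 = concentration required for 50% inhibition of growth. TGI: concentration producing complete growth inhibition.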 Active and inactive are the calls of the source. No stated cut-off is given here; in the data, active means GI50 below about 0.43 µM; inactive means the rest.
Columns and labels:
Experiment in all cases: inhibition of tumour cell growth, NCI panel, 48 h
SK-OV-3 ovarian = test system: SK-OV-3 ovarian
MCF7 breast = test system: MCF7 breast
MDA-MB-435 = test system: MDA-MB-435
HS 578T breast = test system: HS 578T breast

Row | SMILES | GI50 (SK-OV-3 ovarian) | TGI (SK-OV-3 ovarian) | GI50 (MCF7 breast) | TGI (MCF7 breast) | GI50 (MDA-MB-435) | TGI (MDA-MB-435) | GI50 (HS 578T breast) | TGI (HS 578T breast) | outcome (SK-OV-3 ovarian) | outcome (HS 578T breast)
1 | CCCCCCCCn1ccc2cc(NC(=O)Cn3cc(CN4CCCC4)nn3)ccc21 | 1.81 µM | 3.51 µM | 1.71 µM | 3.34 µM | 1.73 µM | 3.24 µM | 1.91 µM | 4.74 µM | – | –
2 | O=c1cc(-c2ccccc2)oc2cc(OC/C(=N/O)c3ccccc3)ccc12 | 12.1 µM | 32.5 µM | – | – | > 50 µM | > 50 µM | – | – | – | –
3 | COc1ccc(-c2nc(-c3nc4ccc(Cl)cc4[nH]3)c3ccccn23)cc1 | 2.24 µM | 4.99 µM | 3.15 µM | 16 µM | 2.3 µM | 7.64 µM | 2.76 µM | 8.06 µM | – | –
4 | O=C(O)CCNC1CCCCC1 | > 100 µM | > 100 µM | > 100 µM | > 100 µM | > 100 µM | > 100 µM | > 100 µM | > 100 µM | – | –
5 | Cc1ccc2c(c1)Sc1c(ccc3ccccc13)N2 | > 100 µM | > 100 µM | > 100 µM | > 100 µM | > 100 µM | > 100 µM | – | – | – | –
6 | O=C(CCc1nnc2sc(-c3ccc(Cl)cc3Cl)nn12)c1nc2ccccc2[nH]1 | 1.77 µM | 3.46 µM | 0.466 µM | 2.45 µM | 0.382 µM | 2.22 µM | 2.23 µM | 8.29 µM | – | –
7 | O=C(Nc1ccc(-c2nc(N3CCOCC3)c3cccn3n2)cc1)Nc1cccnc1 | 0.0987 µM | 0.596 µM | 0.0483 µM | 1.49 µM | 0.225 µM | > 100 µM | 0.0545 µM | 0.416 µM | – | –
8 | O=C1c2ccccc2C(=O)N1CCc1ncc[nH]1 | – | – | – | > 100 µM | – | > 100 µM | – | > 100 µM | – | –
9 | CCCCCCCC[C@@H](O)CC(=O)N[C@@H](CC(N)=O)C(=O)N[C@@H](CCC(N)=O)C(=O)N[C@@H](CC(=O)c1cc(C)cc(O)c1C(=O)c1c(O)cccc1O)CC(C)C | 12.6 µM | > 100 µM | 0.539 µM | > 100 µM | – | – | 3.46 µM | 62 µM | – | –
10 | O=C(O)c1nn(-c2ccccc2-c2n[nH]c(=O)[nH]c2=O)c(=O)[nH]c1=O | – | > 100 µM | – | > 100 µM | – | > 100 µM | – | > 100 µM | – | –
11 | Cc1ccc(C(=O)NC(C)C)cc1-c1ccc(C(=O)NCC2CC2)cc1 | > 25 µM | > 25 µM | > 25 µM | > 25 µM | > 25 µM | > 25 µM | > 25 µM | > 25 µM | – | –
12 | Nc1nccc(-c2c(-c3ccc(F)cc3)ncn2C2CCC(O)CC2)n1 (centres undefined) | 3.97 µM | 12.2 µM | 0.677 µM | > 9.14 µM | 6.75 µM | > 25 µM | 8.21 µM | > 25 µM | – | –
13 | CCOC(=S)SSSC(=S)OCC | – | > 100 µM | – | > 100 µM | – | > 100 µM | – | > 100 µM | – | –
14 | CS(=O)(=O)c1ccc(-n2nc(C(F)(F)F)cc2OC2CCCC2)cc1 | 51.8 µM | > 100 µM | 25.4 µM | 80.2 µM | 59.6 µM | > 100 µM | > 100 µM | > 100 µM | – | –
15 | NC(=O)NS(=O)(=O)c1ccc(N2N=C(C(F)(F)F)CC2c2cc(C(F)(F)F)cc(C(F)(F)F)c2)cc1 (centres undefined) | 7.82 µM | 21.3 µM | 1.85 µM | 4.86 µM | 2.57 µM | 7.16 µM | – | – | – | –
16 | COc1ccc(C(=O)C#Cc2cnc(OC)nc2OC)cc1 | – | 27.2 µM | – | 2.54 µM | 28200 µM | – | – | 27.7 µM | inactive | inactive
17 | N#CC(C#N)=C1Nc2ccccc2S1 | 31.5 µM | > 100 µM | 33.5 µM | > 100 µM | 30.3 µM | > 100 µM | 34.1 µM | 85.9 µM | – | –
18 | COc1ccc(-c2onc(N)c2-c2cc(OC)c3c(c2)OCO3)cc1 | 3.79 µM | 22.6 µM | 0.932 µM | > 100 µM | 0.29 µM | 1.13 µM | 2.65 µM | > 100 µM | – | –
19 | O=C(O)C(=Cc1ccc(-c2ccccc2)cc1)C(=O)O | – | 41.2 µM | – | 33.5 µM | – | > 64.8 µM | – | > 100 µM | – | –
20 | Cc1cc(-c2cnn3c(NCC4CC(C)(O)C4)cc(Oc4cccnc4)nc23)ccc1C(=O)NC1CC1 (centres undefined) | 2.69 µM | > 100 µM | 98.9 µM | > 100 µM | – | – | 4.19 µM | > 100 µM | – | –
21 | Cn1c2ccccc2c2ccc3c(c21)C(=O)c1ccccc1C3=O | – | 61.9 µM | – | – | – | 32.2 µM | – | 46.6 µM | – | –
22 | COc1ccc2c(c1)CCCN2c1c2ccccc2nc2ccccc12 | 0.652 µM | > 100 µM | 0.316 µM | 33.2 µM | – | – | 0.314 µM | 5.86 µM | – | –
23 | CCCCCCCC(=O)OCC/C=C/C1OC1C1OC(=O)/C=C\C=C\c2nc(oc2C)/C=C(/C)CCC2OC2C1OC(=O)NC(C)=O (centres undefined) | 0.0643 µM | 1.33 µM | 0.0368 µM | 0.481 µM | – | – | 0.0776 µM | 0.221 µM | – | –

Reference: PubChem BioAssay (NCI)
